Experimental data published in PubChem BioAssay (NCI).
“And” between values parts separate entries of the source, which are not always exact repeats. Equal entries are not always repeated.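 Method: 48-hour compound exposure of cells in 96-well plates, five concentrations, linear interpolation of endpoints. The concentration for 50% growth inhibition is given as GI50. TGI is the concentration that stops growth completely.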

Assays:
Assay in all cases: DTP human tumour cell line panel, 48 h
KM12 colon = tested on: KM12 colon
HOP-62 NSCLC = tested on: HOP-62 NSCLC
UACC-62 melanoma = tested on: UACC-62 melanoma
HT29 colon = tested on: HT29 colon
MDA-MB-231 breast = tested on: MDA-MB-231 breast
SNB-19 CNS = tested on: SNB-19 CNS
RXF 393 renal = tested on: RXF 393 renal
HCC-2998 colon = tested on: HCC-2998 colon

Row | Structure (SMILES) | GI50 (KM12 colon) | TGI (KM12 colon) [µM] | GI50 (HOP-62 NSCLC) [µM] | TGI (HOP-62 NSCLC) [µM] | GI50 (UACC-62 melanoma) [µM] | TGI (UACC-62 melanoma) [µM] | GI50 (HT29 colon) | TGI (HT29 colon) | GI50 (MDA-MB-231 breast) | TGI (MDA-MB-231 breast) [µM] | GI50 (SNB-19 CNS) [µM] | TGI (SNB-19 CNS) [µM] | GI50 (RXF 393 renal) | TGI (RXF 393 renal) | GI50 (HCC-2998 colon) | TGI (HCC-2998 colon)
1 | Cc1ccc(/C=C(/C#N)n2nnc3cccc(F)c32)cc1 | 0.332 µM | 5.16 | 1.37 | > 100 | 0.32 | 11.1 | 0.359 µM | 11.9 µM | 0.807 µM | 9.66 | 0.466 | 17.4 | 0.201 µM | 0.563 µM | 1.11 µM | 5.15 µM
2 | CC(C)(Oc1cccc(N2CCC[C@@H](C(=O)N(Cc3ccc(-c4cn[nH]c4)cc3)C3CC3)C2)c1)C(=O)N1CCNCC1 | 14.8 µM | 28.8 | 13.3 | 28.5 |  |  | 6.3 µM | 19.7 µM | 14.8 µM | 29.7 | 15.1 | 29.7 | 1.85 µM | 8.26 µM | 3.06 µM | 10.7 µM
3 | O=C(CCl)N1CCN(c2ccccn2)CC1 |  | 94 |  | 46.2 |  |  |  | 32.3 µM |  |  |  | > 100 |  | 41.6 µM |  | 35.8 µM
4 | O=C(NNC1=NS(=O)(=O)c2ccccc2N1c1ccccc1)c1cnccn1 | > 100 µM | > 100 | > 100 | > 100 | > 100 | > 100 | > 100 µM | > 100 µM | > 100 µM | > 100 | > 100 | > 100 | > 100 µM | > 100 µM | > 100 µM | > 100 µM
5 | C=CCc1cc(O)ccc1O | 13.2 µM | 65.1 | 29.8 | > 100 | 25.2 | > 100 | 80.2 µM | > 100 µM | 14.1 µM | > 100 | > 100 | > 100 | 26.3 µM | > 100 µM | > 100 µM | > 100 µM
6 | N#Cc1ncc(-c2ccc(C(F)(F)F)cc2)c(NC2CCCCCC2)n1 | 13.6 µM | > 100 | > 100 | > 100 | 24.5 | > 100 | 9.35 µM | > 100 µM | 6.56 µM | > 100 | 15.3 | > 100 | 5.12 µM | > 100 µM | 13.2 µM | > 100 µM
7 | NC(=O)NC(=O)Nc1ccc(Br)cc1 |  | > 32.8 |  | > 30.8 |  |  |  |  |  | > 42.1 |  | > 39.3 |  | > 100 µM |  | > 31.9 µM
8 | COc1ccc(/C=C/C(=O)OC2CC34CCNC35CC(OC5(OC)C2OC)c2ccc(OC)c(O)c24)cc1O (centres undefined) | 31.6 µM and > 100 µM | > 100 |  | > 100 |  | > 100 | 19.7 µM and > 100 µM | 43.6 µM and > 100 µM | 49.7 µM and > 100 µM | > 100 |  | > 100 | 21.6 µM and > 100 µM | 65.6 µM and > 100 µM | 30.6 µM and > 100 µM | 94.2 µM and > 100 µM
9 | Cc1cc2c(C(C)C)c(O)c(O)c(/C=N/O)c2c(O)c1-c1c(C)cc2c(C(C)C)c(O)c(O)c(/C=N/O)c2c1O | 2.36 µM | 8.52 | 1.95 | 11.4 | 2.15 | 5.23 | 3.19 µM | 12.5 µM | 3.5 µM | 20.2 | 3.32 | 23.5 | 1.49 µM | 6.36 µM | 2.29 µM | 6.88 µM
10 | CC(=O)NC(CCc1ccc(Cl)c(Cl)c1)c1cccc(O)c(=O)c1 (centres undefined) | 0.825 µM | 17.8 | 0.393 | 12.2 | 0.619 | 1.98 | 0.784 µM | 22 µM | 0.709 µM | 15.5 | 0.919 | 18.8 | 0.722 µM | 14.9 µM | 1.47 µM | 13.9 µM
11 | COC(=O)NC1=Nc2ccccc2C(=O)NN1 |  | > 100 |  | > 100 |  | > 100 |  | > 100 µM |  | > 100 |  | > 100 |  | > 100 µM |  | > 100 µM
12 | c1ccc(C2=Nc3ccccc3N3CNN=C23)cc1 | > 100 µM | > 100 | > 100 | > 100 | > 100 | > 100 | 52.2 µM | > 100 µM | 40.7 µM | > 100 | > 100 | > 100 |  |  | > 100 µM | > 100 µM
13 | C/C(=N\O)C1CC(CC(=O)O)C1(C)C (centres undefined) |  | > 100 |  | > 100 |  | > 100 |  | > 100 µM |  | > 100 |  | > 100 |  | > 100 µM |  | > 100 µM
14 | Cc1[nH]c(N)nc(=S)c1CCCNc1ccccc1 |  | > 100 |  | > 100 |  | > 100 |  | > 100 µM |  | > 100 |  | > 100 |  | > 100 µM |  | 
15 | CCc1nc(N)nc(N)c1-c1ccc(N2CCNCC2)c([N+](=O)[O-])c1 |  | > 100 |  | > 91.8 |  | > 100 |  | > 100 µM |  | 69.2 |  | > 100 |  | > 100 µM |  | 58.8 µM
16 | CCN(CC)Cc1cc(Nc2ccnc3ccc(OC)cc23)ccc1O | 3.21 µM | 16 | 3.8 | 18.4 | 5.78 | 20.9 | 1.81 µM | 4.45 µM | 4.76 µM | 31.2 | 8.4 | > 100 | 2.79 µM | 10.9 µM | 2.35 µM | 7.1 µM
17 | CCN1C[C@@H](C)n2c(c(O)c3c(=O)n(Cc4ccc(F)c(Cl)c4)nc(C(=O)NC)c32)C1=O | 2.73 µM | 7.71 | 3.16 | 24.7 |  |  | 3.9 µM | 15.5 µM | 2.64 µM | 7.36 | 3.37 | > 100 |  |  | 2.54 µM | 6.08 µM
18 | N#Cc1c(-c2ccccc2)nc(SCC(O)CN2CCOCC2)nc1N1CCOCC1 (centres undefined) | 30.2 µM | > 100 | 29 | > 100 | 3.55 | > 100 | 15.9 µM | > 100 µM | 8.36 µM | > 100 | 15 | 94.8 | 5.55 µM | 31.8 µM | 47 µM | > 100 µM
